{"source": "PubChem BioAssay AID504473", "about": "(NMMLSC, 2011)", "assay_in_all_cases": "TOR pathway GFP reporter clone modulation in yeast – S. cerevisiae, GFP-tagged clone panel, flow cytometry (AID 504473);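 also: median GFP fluorescence of the cells measured by high-throughput flow cytometry; test concentration not given here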", "conditions_in_all_cases": "S. cerevisiae GFP-tagged strains, 3 h", "key": {"[1]": {"tested_on": "YBR208C"}, "[2]": {"tested_on": "YFR031C-A"}, "[3]": {"tested_on": "YPR132W"}, "[4]": {"tested_on": "YHR018C"}, "[5]": {"tested_on": "YPL131W"}, "[6]": {"tested_on": "YHR087W"}, "[7]": {"tested_on": "YIL069C"}, "[8]": {"tested_on": "YNR001C"}, "[9]": {"tested_on": "YHR144C"}, "[10]": {"tested_on": "YLR287C-A"}, "[11]": {"tested_on": "YBR139W"}, "[12]": {"tested_on": "YIL052C"}, "[13]": {"tested_on": "YCR002C"}, "[14]": {"tested_on": "YAL060W"}, "[15]": {"tested_on": "YLR237W"}, "[16]": {"tested_on": "YKL103C"}, "[17]": {"tested_on": "YMR307W"}, "[18]": {"tested_on": "YAL061W"}, "[19]": {"tested_on": "YKR094C"}, "[20]": {"tested_on": "YNL112W"}, "[21]": {"tested_on": "YLR058C"}, "[22]": {"tested_on": "YNL142W"}, "[23]": {"tested_on": "YEL063C"}, "[24]": {"tested_on": "YML128C"}, "[25]": {"tested_on": "YOR063W"}, "[26]": {"tested_on": "YER117W"}, "[27]": {"tested_on": "YBL087C"}, "[28]": {"tested_on": "YOR173W"}, "[29]": {"tested_on": "YLR109W"}, "[30]": {"tested_on": "YML063W"}, "[31]": {"tested_on": "YJL144W"}, "[32]": {"tested_on": "YOL052C-A"}, "[33]": {"tested_on": "YGR088W"}, "[34]": {"tested_on": "YLL026W"}, "[35]": {"tested_on": "YOR371C"}, "[36]": {"tested_on": "YML004C"}, "[37]": {"tested_on": "YDL130W"}, "[38]": {"tested_on": "YCR005C"}, "[39]": {"tested_on": "YGL062W"}, "[40]": {"tested_on": "YPL111W"}, "[41]": {"tested_on": "YOR375C"}, "[42]": {"tested_on": "YGR121C"}, "[43]": {"tested_on": "YMR105C"}, "[44]": {"tested_on": "YJR148W"}, "[45]": {"tested_on": "YFR053C"}, "[46]": {"tested_on": "YNL214W"}, "[47]": {"tested_on": "YGL147C"}, "[48]": {"tested_on": "YKL119C"}}, "note": "Activity calls are given as the source filed them.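 The calls were made as follows: active = GFP ratio to DMSO above 1.5 or below 0.66; inactive = the rest.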"}
{"smiles": "CO[C@H]1C[C@@H]2CC[C@@H](C)[C@@](O)(O2)C(=O)C(=O)N2CCCC[C@H]2C(=O)O[C@H]([C@H](C)C[C@@H]2CC[C@@H](O)[C@H](OC)C2)CC(=O)[C@H](C)/C=C(\\C)[C@@H](O)[C@@H](OC)C(=O)[C@H](C)C[C@H](C)/C=C/C=C/C=C/1C", "values": [{"measurement": "GFP ratio to DMSO", "setting": "[1]", "value": 3.04}, {"measurement": "GFP ratio to DMSO", "setting": "[2]", "value": 0.481}, {"measurement": "GFP ratio to DMSO", "setting": "[3]", "value": 0.366}, {"measurement": "GFP ratio to DMSO", "setting": "[4]", "value": 1.54}, {"measurement": "GFP ratio to DMSO", "setting": "[5]", "value": "0.781 (inactive)"}, {"measurement": "GFP ratio to DMSO", "setting": "[6]", "value": 2.24}, {"measurement": "GFP ratio to DMSO", "setting": "[7]", "value": 0.171}, {"measurement": "GFP ratio to DMSO", "setting": "[8]", "value": 1.7}, {"measurement": "GFP ratio to DMSO", "setting": "[9]", "value": "0.869 (inactive)"}, {"measurement": "GFP ratio to DMSO", "setting": "[10]", "value": 0.625}, {"measurement": "GFP ratio to DMSO", "setting": "[11]", "value": 1.61}, {"measurement": "GFP ratio to DMSO", "setting": "[12]", "value": 0.619}, {"measurement": "GFP ratio to DMSO", "setting": "[13]", "value": "0.98 (inactive)"}, {"measurement": "GFP ratio to DMSO", "setting": "[14]", "value": 3.23}, {"measurement": "GFP ratio to DMSO", "setting": "[15]", "value": "0.864 (inactive)"}, {"measurement": "GFP ratio to DMSO", "setting": "[16]", "value": 2.8}, {"measurement": "GFP ratio to DMSO", "setting": "[17]", "value": "0.685 (inactive)"}, {"measurement": "GFP ratio to DMSO", "setting": "[18]", "value": 2.14}, {"measurement": "GFP ratio to DMSO", "setting": "[19]", "value": 0.484}, {"measurement": "GFP ratio to DMSO", "setting": "[20]", "value": "0.73 (inactive)"}, {"measurement": "GFP ratio to DMSO", "setting": "[21]", "value": "1.04 (inactive)"}, {"measurement": "GFP ratio to DMSO", "setting": "[22]", "value": 15.6}, {"measurement": "GFP ratio to DMSO", "setting": "[23]", "value": 1.7}, {"measurement": "GFP ratio to DMSO", "setting": "[24]", "value": 2.56}, {"measurement": "GFP ratio to DMSO", "setting": "[25]", "value": "0.703 (inactive)"}, {"measurement": "GFP ratio to DMSO", "setting": "[26]", "value": 0.304}, {"measurement": "GFP ratio to DMSO", "setting": "[27]", "value": 0.33}, {"measurement": "GFP ratio to DMSO", "setting": "[28]", "value": 1.86}, {"measurement": "GFP ratio to DMSO", "setting": "[29]", "value": "1.43 (inactive)"}, {"measurement": "GFP ratio to DMSO", "setting": "[30]", "value": "0.714 (inactive)"}, {"measurement": "GFP ratio to DMSO", "setting": "[31]", "value": 2.03}, {"measurement": "GFP ratio to DMSO", "setting": "[32]", "value": 2.68}, {"measurement": "GFP ratio to DMSO", "setting": "[33]", "value": 2.06}, {"measurement": "GFP ratio to DMSO", "setting": "[34]", "value": 2.05}, {"measurement": "GFP ratio to DMSO", "setting": "[35]", "value": "1.06 (inactive)"}, {"measurement": "GFP ratio to DMSO", "setting": "[36]", "value": "1.5 (inactive)"}, {"measurement": "GFP ratio to DMSO", "setting": "[37]", "value": "0.717 (inactive)"}, {"measurement": "GFP ratio to DMSO", "setting": "[38]", "value": 4.59}, {"measurement": "GFP ratio to DMSO", "setting": "[39]", "value": 2.27}, {"measurement": "GFP ratio to DMSO", "setting": "[40]", "value": 2.16}, {"measurement": "GFP ratio to DMSO", "setting": "[41]", "value": 1.78}, {"measurement": "GFP ratio to DMSO", "setting": "[42]", "value": 1.72}, {"measurement": "GFP ratio to DMSO", "setting": "[43]", "value": 2.65}, {"measurement": "GFP ratio to DMSO", "setting": "[44]", "value": 3.38}, {"measurement": "GFP ratio to DMSO", "setting": "[45]", "value": 1.66}, {"measurement": "GFP ratio to DMSO", "setting": "[46]", "value": "1.06 (inactive)"}, {"measurement": "GFP ratio to DMSO", "setting": "[47]", "value": "0.682 (inactive)"}, {"measurement": "GFP ratio to DMSO", "setting": "[48]", "value": "1.03 (inactive)"}]}
